From BindingDB's records for doi:10.7270/Q2JQ0ZGP (Nmmlsc, 2010) come the findings set out here.

Where only a bound is given, the exact number is not on record here.

The assay has as its target 60S ribosomal protein L19-A (Saccharomyces cerevisiae (strain ATCC 204508 / S288c), UniProt P0CX82). As to the kind of experiment: RPL19A GFP fusion protein, TOR pathway, Saccharomyces cerevisiae, dose response (AID 2740).

Chain of 60S ribosomal protein L19-A (P0CX82 whole entry, the tested form may be a part): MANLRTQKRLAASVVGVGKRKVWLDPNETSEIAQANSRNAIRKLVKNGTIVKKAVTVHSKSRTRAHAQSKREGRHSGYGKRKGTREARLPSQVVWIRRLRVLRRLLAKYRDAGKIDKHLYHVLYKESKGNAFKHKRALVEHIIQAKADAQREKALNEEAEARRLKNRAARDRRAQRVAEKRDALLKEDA

For the molecule `O=C1NC(=S)NC(=O)C1=Cc1ccc2c(c1)CCN2CCCCl` [5-[[1-(3-chloropropyl)-2,3-dihydroindol-5-yl]methylidene]-2-sulfanylidene-1,3-diazinane-4,6-dione], the EC50 was greater than 33 µM.
The result for `CS(=O)(=O)c1nc(-c2cccs2)cc(C(F)(F)F)n1` [MLS000044645] reads greater than 33 µM.

The EC50 is the midpoint of the concentration-response curve. Read a high EC50 as weaker potency.
